“Also recorded” adds a separate entry of the source.
Experiments:
RAGE [1] = target: T1, RAGE (Homo sapiens, UniProt Q15109); test: Direct immunoprecipitation with RAGE; format: binding; conditions: direct immunoprecipitation experiments
[2] = system: Primary human myoblast differentiated into terminal myotubes; test: Cachexia induction by recombinant S100/HMGB1 ligands, myosin HC in-cell Western; format: cell-based; conditions: recombinant ligand applied each day for 3 days
Protocol: FIGS. 1-3 illustrate the effect of various proteins of the S100 family, as well as HMGB1, as cachexia inducers when compared with cachexia-inducing media. Primary human myoblast were plated and differentiated into terminal myotubes as previously described. Recombinant ligands were prepared at the same dose curve in Hanks Balance Salt Solution (buffer) and applied 1:2 v:v to fresh maintenance media each day for 3 days. Cells were assessed for myosin HC content by in-cell Western staining as previously described.

RAGE [3] = target: T1, RAGE; conditions: cited from earlier work
A-beta brain entry = conditions: in vivo; cited from earlier work
HSkM = test: Functional testing in Cachexia Assay (HSkM functional assay); format: cell-based, human; conditions: FIG. 25
Excerpt: This implies that the modeled Ab epitope is likely a functional focused target for Ab therapy and that this is the basis for further small molecule therapeutic development for cancer cachexia and other RAGE mediated diseases.

rat model of ICH = conditions: cited from earlier work
V domain of RAGE = V domain of RAGE (Homo sapiens, UniProt Q15109); conditions: cited from earlier work
V domain of RAGE, sequence (Q15109 23-116 limits assumed): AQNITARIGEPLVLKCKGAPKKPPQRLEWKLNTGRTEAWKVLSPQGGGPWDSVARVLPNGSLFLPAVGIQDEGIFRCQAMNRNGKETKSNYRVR

RAGE-expressing cells = RAGE-expressing cells in vitro and mouse brain in vivo; cited from earlier work

T1 sequence (Q15109 23-404): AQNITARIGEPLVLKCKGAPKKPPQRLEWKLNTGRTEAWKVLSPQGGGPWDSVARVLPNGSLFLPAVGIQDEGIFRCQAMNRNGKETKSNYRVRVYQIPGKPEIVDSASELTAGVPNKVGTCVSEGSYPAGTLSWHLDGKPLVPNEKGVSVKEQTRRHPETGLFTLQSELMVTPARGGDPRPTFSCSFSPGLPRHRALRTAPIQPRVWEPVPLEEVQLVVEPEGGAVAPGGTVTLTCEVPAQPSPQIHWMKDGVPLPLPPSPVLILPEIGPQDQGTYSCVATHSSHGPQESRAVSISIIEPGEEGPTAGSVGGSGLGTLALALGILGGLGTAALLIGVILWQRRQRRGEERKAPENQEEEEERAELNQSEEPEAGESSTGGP

With “S100A8/A9: recombinant S100A8/A9 (Calprotectin)” the “direct binding to RAGE” value (RAGE [1]) was “directly bind to RAGE” and the “induction of the cachectic phenotype (myosin HC content)” value (from here on “induction of the cachectic phenotype”) [2] was “capable of inducing the cachexia phenotype”.

For `CCN(CC)CCOc1ccccc1Nc1nc(-c2ccc(Cl)cc2)cc(-c2ccc(Cl)cc2)n1` [Compound 60, 4,6-bis(4-chlorophenyl)-N-(2-(2-(diethylamino)ethoxy)phenyl)-pyrimidin-2-amine], the affinity to ligand (RAGE [3]) is given as “highest affinity to ligand” and the in vitro activity (RAGE [3]) is given as “best in vitro activity”.

For `CCN(CC)CCOc1cccc(Nc2nc(C)cc(-c3ccc(OCCC4CCCCC4)cc3)n2)c1` [Compound 53, 4-(4-(2-cyclohexylethoxy)phenyl)-N-(3-(2-(diethylamino)ethoxy)-phenyl)-6-methylpyrimidin-2-amine], the affinity to ligand (RAGE [3]) is listed as “highest affinity to ligand”.

For `CCN(CC)CCOc1cccc(Nc2nc(-c3ccc(Cl)cc3)cc(-c3ccc(Cl)cc3)n2)c1` [Compound 59, 4,6-bis(4-chlorophenyl)-N-(3-(2-(diethylamino)ethoxy)phenyl)-pyrimidin-2-amine], the affinity to ligand (RAGE [3]) is listed as “highest affinity to ligand”, the “inhibition (not further specified)” value (RAGE [3]) is listed as “most significant inhibition” and the “A-beta brain entry inhibition” value (A-beta brain entry) is listed as “most potent A-beta brain entry inhibition”.

For `CCCCCC(=Cc1ccccc1)CN(CCc1c[nH]c2ccccc12)C(=O)c1ccc(Cl)c([N+](=O)[O-])c1` [FPS3], the “inhibition of cachexia phenotype” value (HSkM) was “inhibits cachexia phenotype”.

For `O=C(c1ccc(Cl)cc1)N(Cc1ccccc1)C1CCCCC1` [FPS-ZM1], the “BBB damage, brain edema, motor dysfunction, nerve fiber injury” value (rat model of ICH; rat ICH model, FPS-ZM1 administration) is listed as “significant improvements of BBB damage, brain edema, motor dysfunction, and nerve fiber injury”, the “FeCl2-induced RAGE and nuclear factor κB p65 upregulation” value (rat model of ICH; rat, in vivo) is listed as “reversed FeCl2-induced RAGE and nuclear factor κB p65 upregulation” and the “blocking of Aβ binding to the V domain of RAGE” value (V domain of RAGE) is listed as “blocked A13 binding to the V domain of RAGE”. For the same molecule, the “inhibition of Aβ40- and Aβ42-induced cellular stress” value (RAGE-expressing cells) was “inhibited A1340- and A1342-induced cellular stress”.

B1: S100 A7: recombinant RAGE ligand of the S100 family (protein, UniProt P31151 2-101, looked up)
Protein S100-A7: SNTQAERSIIGMIDMFHKYTRRDDKIEKPSLLTMMKENFPNFLSACDKKGTNYLADVFEKKDKNEDKKIDFSEFLSLLGDIATDYHKQSHGAAPCSGGSQ
With B1 the “direct binding to RAGE” value (RAGE [1]) was “directly bind to RAGE”, the “induction of the cachectic phenotype” value [2] was “inducers of the cachectic phenotype” and the “induction of the cachectic phenotype” value ([2]; listed as S100A7) was “capable of inducing the cachexia phenotype”.

B2: S100B: recombinant S100 family RAGE ligand (protein, UniProt P04271 2-92, looked up)
Protein S100-B: SELEKAMVALIDVFHQYSGREGDKHKLKKSELKELINNELSHFLEEIKEQEVVDKVMETLDNDGDGECDFQEFMAFVAMVTTACHEFFEHE
With B2 the “induction of the cachectic phenotype” value [2] was “little or no activity in inducing cachexia; also recorded: do not induce precachexia and/or cachexia”.

B3: A8: recombinant RAGE ligand of the S100 family (protein, UniProt P05109 1-93, looked up)
Protein S100-A8: MLTELEKALNSIIDVYHKYSLIKGNFHAVYRDDLKKLLETECPQYIRKKGADVWFKELDINTDGAVNFQEFLILVIKMGVAAHKKSHEESHKE
In the case of B3, the “induction of the cachectic phenotype” value [2] is reported as “inducers of the cachectic phenotype”.

B4: A9: recombinant RAGE ligand of the S100 family (protein, UniProt P06702 1-114, looked up)
Protein S100-A9: MTCKMSQLERNIETIINTFHQYSVKLGHPDTLNQGEFKELVRKDLQNFLKKENKNEKVIEHIMEDLDTNADKQLSFEEFIMLMARLTWASHEKMHEGDEGPGHHHKPGLGEGTP
With B4 the “induction of the cachectic phenotype” value [2] was “inducers of the cachectic phenotype”.

B5: HMGB1: high mobility group box 1, RAGE ligand (protein, UniProt P09429 1-215, looked up)
High mobility group protein B1: MGKGDPKKPRGKMSSYAFFVQTCREEHKKKHPDASVNFSEFSKKCSERWKTMSAKEKGKFEDMAKADKARYEREMKTYIPPKGETKKKFKDPNAPKRPPSAFFLFCSEYRPKIKGEHPGLSIGDVAKKLGEMWNNTAADDKQPYEKKAAKLKEKYEKDIAAYRAKGKPDAAKKGVVKAEKSKKKKEEEEDEEDEEDEEEEEDEEDEDEEEDDDDE
In the case of B5, the “induction of the cachectic phenotype” value [2] is reported as “do not induce precachexia and/or cachexia; also recorded: not cachexogenic in muscle; also recorded: cannot; also recorded: does not induce the cachectic phenotype”.

Source: US20180355033A1, “ANTIBODIES, COMPOUNDS AND SCREENS FOR IDENTIFYING AND TREATING CACHEXIA OR PRE-CACHEXIA” (Dana-Farber Cancer Institute, Inc., priority 2015, published 2018)
